Experimental data reported in ChEMBL document CHEMBL4261494, “Design, synthesis and biological evaluation of novel Schiff base-bridged tetrahydroprotoberberine triazoles as a new type of potential antimicrobial agents” (Medchemcomm, 2017).
Values after ≈ are worked out from the molar mass of the structure shown. Active and inactive are the calls of the source. No cut-off for these calls is given here.

Legend:
Staphylococcus aureus [1] = assay type: functional; details: ATCC 25923, 24 h
Staphylococcus aureus [2] = assay type: functional; details: N315, 24 h
Bacillus spizizenii = assay type: functional; details: ATCC 6633, 24 h
Micrococcus luteus = assay type: functional; details: ATCC 4698, 24 h
Escherichia coli [3] = assay type: functional; details: JM109, 24 h
Escherichia coli [4] = assay type: functional; details: DH52, 24 h
Shigella dysenteriae = assay type: functional; details: 24 h
Pseudomonas aeruginosa = assay type: functional; details: ATCC 27853, 24 h
Proteus vulgaris = assay type: functional; details: ATCC 13315, 24 h
Staphylococcus aureus [5] = assay: Antibacterial activity against methicillin-resistant Staphylococcus aureus N315 after 5 passages; assay type: functional, organism-based
Salmonella typhi [6] = assay: microbe, parasite or virus in culture; details: Salmonella enterica, 24 h
[7] = Aqueous solubility of the compound in pH 7.4 phosphate buffer at 1 mg after 3 hrs by UV absorption analysis; assay type: physicochemical
Escherichia coli [8] = assay: Potency index, ratio of chloromycin MIC to test compound MIC for Escherichia coli JM109; assay type: functional
Salmonella typhi [9] = assay: Potency index, ratio of chloromycin MIC to test compound MIC for Bacillus typhi; assay type: functional, Salmonella enterica subsp. enterica serovar Typhi
Candida albicans = assay type: functional
Kregervanrija fluxuum = assay type: functional
Cyberlindnera jadinii = assay type: functional
Aspergillus flavus = assay type: functional
Saccharomyces cerevisiae = assay type: functional; details: 24 h

Row | Structure (SMILES) | MIC (Staphylococcus aureus [1]) [µg/mL] | MIC (Staphylococcus aureus [2]) [µg/mL] | MIC (Bacillus spizizenii) [µg/mL] | MIC (Micrococcus luteus) [µg/mL] | MIC (Escherichia coli [3]) [µg/mL] | MIC (Escherichia coli [4]) [µg/mL] | MIC (Shigella dysenteriae) [µg/mL] | MIC (Pseudomonas aeruginosa) [µg/mL] | MIC (Proteus vulgaris) [µg/mL] | MIC (Salmonella typhi [6]) [µg/mL] | solubility at 3 h [7] [µg/mL] | other results
1 | CCn1cc(C(=O)O)c(=O)c2cc(F)c(N3CCNCC3)cc21 [NORFLOXACIN] | 0.5 (≈ 1.57 µM) | 8 (≈ 25.1 µM) | 4 (≈ 12.5 µM) | 4 (≈ 12.5 µM) | 1 (≈ 3.13 µM) | 1 (≈ 3.13 µM) | 4 (≈ 12.5 µM) | 16 (≈ 50.1 µM) | 8 (≈ 25.1 µM) | 4 (≈ 12.5 µM) | – | Activity (Staphylococcus aureus [5]): inactive
2 | COc1cc(/C=N/n2cnnc2)c2c(c1OCc1ccc(Cl)cc1Cl)CN1CCc3cc4c(cc3C1C2)OCO4 (configuration not stated) | 16 (≈ 27.7 µM) | 8 (≈ 13.8 µM) | 32 (≈ 55.3 µM) | 128 (≈ 221 µM) | 16 (≈ 27.7 µM) | 256 (≈ 443 µM) | 512 (≈ 885 µM) | 32 (≈ 55.3 µM) | 32 (≈ 55.3 µM) | 32 (≈ 55.3 µM) | – | –
3 | COc1cc(/C=N/n2cnnc2)c2c(c1OCc1ccccc1Cl)CN1CCc3cc4c(cc3C1C2)OCO4 (configuration not stated) | 16 (≈ 29.4 µM) | 16 (≈ 29.4 µM) | 32 (≈ 58.8 µM) | 256 (≈ 471 µM) | 4 (≈ 7.35 µM) | 64 (≈ 118 µM) | 16 (≈ 29.4 µM) | 2 (≈ 3.68 µM) | 512 (≈ 941 µM) | 1 (≈ 1.84 µM) | – | –
4 | CCOc1c(OC)cc(/C=N/n2cnnc2)c2c1CN1CCc3cc4c(cc3C1C2)OCO4 (configuration not stated) | 256 (≈ 572 µM) | 8 (≈ 17.9 µM) | 128 (≈ 286 µM) | 16 (≈ 35.8 µM) | 256 (≈ 572 µM) | 512 (≈ 1140 µM) | 512 (≈ 1140 µM) | 256 (≈ 572 µM) | 32 (≈ 71.5 µM) | 256 (≈ 572 µM) | – | –
5 | CCCCOc1c(OC)cc(/C=N/n2cnnc2)c2c1CN1CCc3cc4c(cc3C1C2)OCO4 (configuration not stated) | 16 (≈ 33.6 µM) | 8 (≈ 16.8 µM) | 16 (≈ 33.6 µM) | 1 (≈ 2.1 µM) | 16 (≈ 33.6 µM) | 32 (≈ 67.3 µM) | 8 (≈ 16.8 µM) | 16 (≈ 33.6 µM) | 16 (≈ 33.6 µM) | 16 (≈ 33.6 µM) | 121 (≈ 254 µM) | –
6 | CCCCCCOc1c(OC)cc(/C=N/n2cnnc2)c2c1CN1CCc3cc4c(cc3C1C2)OCO4 (configuration not stated) | 8 (≈ 15.9 µM) | 32 (≈ 63.5 µM) | 8 (≈ 15.9 µM) | 16 (≈ 31.8 µM) | 4 (≈ 7.94 µM) | 32 (≈ 63.5 µM) | 8 (≈ 15.9 µM) | 32 (≈ 63.5 µM) | 16 (≈ 31.8 µM) | 2 (≈ 3.97 µM) | 442 (≈ 878 µM) | Ratio (Escherichia coli [8]): 8; Ratio (Salmonella typhi [9]): 16; MIC (Candida albicans; ATCC 10231, 24 h): 2 to 32 µg/mL (≈ 3.97 to 63.5 µM); MIC (Kregervanrija fluxuum; ATCC 9888, 24 h): 2 to 32 µg/mL (≈ 3.97 to 63.5 µM); MIC (Cyberlindnera jadinii; Williopsis jadinii, ATCC 9950, 24 h): 2 to 32 µg/mL (≈ 3.97 to 63.5 µM); MIC (Aspergillus flavus; ATCC 204304, 24 h): 2 to 32 µg/mL (≈ 3.97 to 63.5 µM); MIC (Saccharomyces cerevisiae): 2 to 32 µg/mL (≈ 3.97 to 63.5 µM)
7 | COc1cc(/C=N/n2cnnc2)c2c(c1OCc1ccc(F)cc1)CN1CCc3cc4c(cc3C1C2)OCO4 (configuration not stated) | 32 (≈ 60.7 µM) | 8 (≈ 15.2 µM) | 32 (≈ 60.7 µM) | 2 (≈ 3.79 µM) | 32 (≈ 60.7 µM) | 16 (≈ 30.3 µM) | 16 (≈ 30.3 µM) | 8 (≈ 15.2 µM) | 128 (≈ 243 µM) | 4 (≈ 7.58 µM) | 185 (≈ 351 µM) | –
8 | COc1cc(/C=N/n2cnnc2)c2c(c1OCc1cccc(Cl)c1)CN1CCc3cc4c(cc3C1C2)OCO4 (configuration not stated) | 256 (≈ 471 µM) | 256 (≈ 471 µM) | 512 (≈ 941 µM) | 512 (≈ 941 µM) | 0.5 (≈ 0.919 µM) | 512 (≈ 941 µM) | 64 (≈ 118 µM) | 512 (≈ 941 µM) | 512 (≈ 941 µM) | 256 (≈ 471 µM) | – | –
9 | COc1cc(C=O)c2c(c1O)CN1CCc3cc4c(cc3C1C2)OCO4 (configuration not stated) | 128 (≈ 362 µM) | 256 (≈ 724 µM) | 32 (≈ 90.6 µM) | 2 (≈ 5.66 µM) | 256 (≈ 724 µM) | 256 (≈ 724 µM) | 512 (≈ 1450 µM) | 16 (≈ 45.3 µM) | 64 (≈ 181 µM) | 2 (≈ 5.66 µM) | 79 (≈ 224 µM) | Activity (Candida albicans; ATCC 10231): inactive; Activity (Kregervanrija fluxuum; ATCC 9888): inactive; Activity (Cyberlindnera jadinii; ATCC 9950): inactive; Activity (Aspergillus flavus; ATCC 204304): inactive; MIC (Saccharomyces cerevisiae): 1 µg/mL (≈ 2.83 µM)
